Test results published in ChEMBL document CHEMBL1221198 (Nat Chem Biol, 2007).

Assays:
HEK293 [1] = experiment: Inhibition of RSK-mediated rpS6 phosphorylation at Ser236 residues in human PMA-stimulated HEK 293 cells at 30 uM after 1 hr by Western blotting; type: cell-based
HEK293 [2] = experiment: Inhibition of RSK-mediated rpS6 phosphorylation at Ser235 residues in human PMA-stimulated HEK 293 cells at 30 uM after 1 hr by Western blotting; type: cell-based
[3] = biological target: T1, Ribosomal protein S6 kinase alpha-3 (Homo sapiens, UniProt P51812); experiment: Inhibition of His6-tagged RSK2 C-terminal domian expressed in Escherichia coli after 30 mins
T1 sequence (P51812 whole entry): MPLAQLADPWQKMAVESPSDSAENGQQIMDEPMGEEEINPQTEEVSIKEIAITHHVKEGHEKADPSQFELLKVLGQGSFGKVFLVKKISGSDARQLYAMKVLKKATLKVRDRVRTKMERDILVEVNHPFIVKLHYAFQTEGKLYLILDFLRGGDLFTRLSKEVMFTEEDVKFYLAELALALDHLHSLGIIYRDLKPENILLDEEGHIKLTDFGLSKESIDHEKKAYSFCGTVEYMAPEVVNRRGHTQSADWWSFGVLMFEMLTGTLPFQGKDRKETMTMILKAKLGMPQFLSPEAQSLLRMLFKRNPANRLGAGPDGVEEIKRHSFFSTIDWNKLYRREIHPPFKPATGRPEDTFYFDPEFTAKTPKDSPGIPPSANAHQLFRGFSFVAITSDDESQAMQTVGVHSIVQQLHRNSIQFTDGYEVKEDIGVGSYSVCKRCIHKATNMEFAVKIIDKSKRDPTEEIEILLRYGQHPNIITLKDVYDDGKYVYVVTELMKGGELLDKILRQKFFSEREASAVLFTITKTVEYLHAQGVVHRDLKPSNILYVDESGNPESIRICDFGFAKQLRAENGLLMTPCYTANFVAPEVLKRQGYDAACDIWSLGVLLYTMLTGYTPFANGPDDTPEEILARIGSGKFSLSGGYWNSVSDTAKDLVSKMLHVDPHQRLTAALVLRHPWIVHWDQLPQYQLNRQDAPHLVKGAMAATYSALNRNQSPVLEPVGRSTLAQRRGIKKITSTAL

[4] = biological target: T1, Ribosomal protein S6 kinase alpha-3; experiment: Inhibition of PMA-stimulated RSK2 phosphorylation in HEK293 cells after 1 hr by Western blotting analysis; type: cell-based

IC50 [3] [µM] | EC50 [4] [µM] | Structure (SMILES) | inhibition (HEK293 [1]) [%] | inhibition (HEK293 [2]) [%]
– | – | CO[C@H]1C[C@@H]2CC[C@@H](C)[C@@](O)(O2)C(=O)C(=O)N2CCCC[C@H]2C(=O)O[C@H]([C@H](C)C[C@@H]2CC[C@@H](O)[C@H](OC)C2)CC(=O)[C@H](C)/C=C(\C)[C@@H](O)[C@@H](OC)C(=O)[C@H](C)C[C@H](C)/C=C/C=C/C=C/1C | 76 | 76
1.7 | 10 | CC1=CC(C)=[N+]2C1=Cc1ccc(CCC(=O)NCCCCCC(=O)NCCCCNC(=O)OCCCn3c(C(=O)CF)c(-c4ccc(C)cc4)c4c(N)ncnc43)n1[B-]2(F)F | – | –
